From US5861375A, “Antiprotozoal cyclic tetrapeptides” (Merck & Co., Inc., priority 1997, dated 1999)

Tested on: Plasmodium falciparum
Test: Radioactive antimalarial assay (parasite specific uptake of radiolabel)
Format: cell-based
Conditions: P. falciparum
Method: Compound of formula Ia was evaluated against Eimeria tenella, Toxoplasma gondii, and Plasmodium falciparum according to methods reported in the literature.
The antimalarial activity was determined in a radioactive assay following the general protocol described in Desjardins et al, "Quantitative Assessment of Antimalarial Activity In Vitro by a Semiautomated Microdilution Technique" Antimicrobial Agents and Chemotherapy. 1979, 16:710-718.

SMILES: CCC(=O)CCCCC[C@@H]1NC(=O)[C@H]2CCCCN2C(=O)[C@H]([C@@H](C)CC)NC(=O)[C@H](Cc2cn(OC)c3ccccc23)NC1=O [Ia]
- IC50 (the concentration of drug which inhibits the parasite specific uptake of radiolabel by 50%): 0.054 µg/mL
